Marks after values point to notes of the source that are not given here.
Tested on: murine splenocytes
Assay: Ex vivo murine splenocytes proliferation assay (Alamar Blue), Example I
Assay type: cell-based, BALB/c mice
Settings: for Stimulation index, proliferation of murine splenocytes in the presence of Concavanalin A: ConA 0.5 μg/mL; for Stimulation index, proliferation of resting murine splenocytes: without ConA
Description: Ex vivo murine splenocytes proliferation assay. The splenocytes were isolated from 6- to 12-weeks-old female BALB/c mice (Charles River, St-Constant, QC, Canada) and cultured in the absence and presence of suboptimal concentration of ConA (0.5 μg/mL). The peptides were solubilized in complete RPMI medium, agitated overnight at 4° C. then the solutions were adjusted to pH 7. Thereafter, the peptide solutions were added at various final concentrations (10-2000 μg/mL, protein basis) to the wells of 96-well round-bottomed microplates, which were incubated at 37° C. at 80% relative humidity in a 5% CO2 atmosphere for 72 h (with ConA) or 96 h (without ConA). Cell proliferation was evaluated by the reduction of the fluorochrome Alamar Blue™ (BioSource international, Camarillo, Calif., USA), which was added into the wells for the last 24 h of the incubation periods. The fluorescence of the supernatants was monitored at an excitation wavelength of 560 nm and an emission wavelength of 590 nm using a fluorometer (Fluoroscan Ascent, Thermo Electron Inc., Milford, Mass., USA). The assays were performed in triplicate (three wells per sample) and data are expressed as stimulation indices (SI), and calculated using the following equations: […]

Substance	Stimulation index, proliferation of murine splenocytes in the presence of Concavanalin A (peptide 10 μg mL^−1, 72 h)	Stimulation index, proliferation of resting murine splenocytes (peptide 10 μg mL^−1, 96 h)	Stimulation index, proliferation of murine splenocytes in the presence of Concavanalin A (peptide 100 μg mL^−1, 72 h)	Stimulation index, proliferation of resting murine splenocytes (peptide 100 μg mL^−1, 96 h)	Stimulation index, proliferation of murine splenocytes in the presence of Concavanalin A (peptide 500 μg mL^−1, 72 h)	Stimulation index, proliferation of resting murine splenocytes (peptide 500 μg mL^−1, 96 h)	Stimulation index, proliferation of murine splenocytes in the presence of Concavanalin A (peptide 1000 μg mL^−1, 72 h)	Stimulation index, proliferation of resting murine splenocytes (peptide 1000 μg mL^−1, 96 h)	Stimulation index, proliferation of murine splenocytes in the presence of Concavanalin A (peptide 2000 μg mL^−1, 72 h)	Stimulation index, proliferation of resting murine splenocytes (peptide 2000 μg mL^−1, 96 h)
ALPMHIR (listed as Homo sapiens) [β-Lg f142-148]	2.32	1.16	2.30	1.17	2.36	1.37**	2.49**	1.61**	2.63**	1.73**
EILLQK (UniProt P02754 71-76, looked up, fragment) [β-Lg f55-60]	1.96	1.05	1.92	1.09	1.98	1.16	1.93	1.54**	2.34**	1.54**
IDALNENK [β-Lg f84-91]	2.20	0.99	2.27	1.08	2.24	1.20*	2.18	1.22*	2.16	1.27**
RELKDLK [α-La f10-16]	1.85	1.06	1.95	1.19	1.95	1.47**	2.08	1.81**	2.26**	1.97**
VAGTWY (UniProt P02754 31-36, looked up, fragment) [β-Lg f15-20]	1.65	1.01	1.71	1.12*	1.67	1.46**	1.78	1.65**	1.77	1.42**
VLVLDTDYKKYLLF (listed as Homo sapiens) [β-Lg f92-105]	1.92	1.00	1.92	1.07	2.27**	1.15**	2.37**	1.31**	2.69**	1.55**
